Assay results reported in patent US10364247B2, “Preparation and use of novel protein kinase inhibitors” (Ruijin Hospital Affiliated to Shanghai Jiao Tong University …, priority 2015, dated 2019).

What was measured:
Experiment in all cases: KINOMEscan competition binding
[1] = target: ABL1(F317L)-nonphosphorylated (Homo sapiens, UniProt P00519, F317L); conditions: read-out: Percent Control
Procedure: (§1) KINOMEscan™ is based on a competition binding assay that quantitatively measures the ability of a compound to compete with an immobilized, active-site directed ligand (Fabian et al. (2005) Nat. Biotechnol. 23, 329; Karaman et al. (2008) Nat. Biotechnol. 26, 127). The compound was screened at 10 μM, and results for primary screen binding interactions are reported as ‘% Ctrl’, where lower numbers indicate stronger hits. The results for kinases targets with a % Ctrl less than 30 can be seen in Table 2.

[2] = target: ABL1(M351T)-phosphorylated (Homo sapiens, UniProt P00519, M351T); conditions: read-out: Percent Control
Procedure: as §1

[3] = target: ABL1(T315I)-phosphorylated (Homo sapiens, UniProt P00519, T315I); conditions: read-out: Percent Control
Procedure: as §1

[4] = target: ABL1-phosphorylated (Homo sapiens, UniProt P00519); conditions: read-out: Percent Control
Procedure: as §1

[5] = target: T1, AURKB (Homo sapiens, UniProt Q96GD4); conditions: read-out: Percent Control
T1 construct: purchased KINOMEscan (screening service)
Procedure: as §1

[6] = target: T2, BRAF(V600E) (Homo sapiens, UniProt P15056, V600E); conditions: read-out: Percent Control
T2 construct: purchased KINOMEscan (panel service)
T2 sequence (P15056 whole entry V600E): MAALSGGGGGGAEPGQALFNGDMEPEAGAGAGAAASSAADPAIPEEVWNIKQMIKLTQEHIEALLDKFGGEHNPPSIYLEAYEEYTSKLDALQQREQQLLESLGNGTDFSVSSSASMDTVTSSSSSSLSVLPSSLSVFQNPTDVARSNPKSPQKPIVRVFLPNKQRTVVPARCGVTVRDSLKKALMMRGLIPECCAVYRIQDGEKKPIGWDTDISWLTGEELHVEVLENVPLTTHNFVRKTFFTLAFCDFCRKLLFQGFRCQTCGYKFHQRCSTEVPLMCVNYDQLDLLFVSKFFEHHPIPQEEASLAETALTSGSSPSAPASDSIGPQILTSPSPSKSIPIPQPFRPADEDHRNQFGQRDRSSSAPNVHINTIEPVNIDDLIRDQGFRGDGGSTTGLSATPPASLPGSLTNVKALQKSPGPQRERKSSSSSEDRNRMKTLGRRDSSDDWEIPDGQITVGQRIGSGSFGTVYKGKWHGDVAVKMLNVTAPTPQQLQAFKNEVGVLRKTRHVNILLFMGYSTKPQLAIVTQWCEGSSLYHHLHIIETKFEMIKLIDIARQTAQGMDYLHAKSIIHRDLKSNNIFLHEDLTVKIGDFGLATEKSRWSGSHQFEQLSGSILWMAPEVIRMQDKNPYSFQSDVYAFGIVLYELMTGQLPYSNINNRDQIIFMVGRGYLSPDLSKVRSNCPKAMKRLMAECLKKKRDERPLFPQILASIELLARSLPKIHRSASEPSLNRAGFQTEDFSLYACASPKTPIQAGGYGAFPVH
Procedure: as §1

[7] = target: BRK (Homo sapiens, UniProt Q13882); conditions: BRK (Entrez PTK6), read-out: Percent Control
Procedure: as §1

[8] = target: T3, CDC2L1 (Homo sapiens, UniProt P21127); conditions: CDC2L1 (Entrez CDK11B), read-out: Percent Control
T3 construct: purchased KINOMEscan (screening service)
Procedure: as §1

[9] = target: DDR1 (Homo sapiens, UniProt Q08345); conditions: read-out: Percent Control
Procedure: as §1

[10] = target: T4, DRAK1 (Homo sapiens, UniProt Q9UEE5); conditions: DRAK1 (Entrez STK17A), read-out: Percent Control
T4 construct: purchased KINOMEscan (screening platform)
Procedure: as §1

[11] = target: T5, DRAK2 (Homo sapiens, UniProt O94768); conditions: DRAK2 (Entrez STK17B), read-out: Percent Control
T5 construct: purchased KINOMEscan (screening service)
Procedure: as §1

[12] = target: T6, EGFR(L858R, T790M) (Homo sapiens, UniProt P00533, L858R/T790M); conditions: read-out: Percent Control
T6 construct: purchased KINOMEscan (screening platform)
Procedure: as §1

[13] = target: EPHA6 (Homo sapiens, UniProt Q9UF33); conditions: read-out: Percent Control
Procedure: as §1

[14] = target: EPHB2 (Homo sapiens, UniProt P29323); conditions: read-out: Percent Control
Chain of EPHB2 (P29323 19-1055): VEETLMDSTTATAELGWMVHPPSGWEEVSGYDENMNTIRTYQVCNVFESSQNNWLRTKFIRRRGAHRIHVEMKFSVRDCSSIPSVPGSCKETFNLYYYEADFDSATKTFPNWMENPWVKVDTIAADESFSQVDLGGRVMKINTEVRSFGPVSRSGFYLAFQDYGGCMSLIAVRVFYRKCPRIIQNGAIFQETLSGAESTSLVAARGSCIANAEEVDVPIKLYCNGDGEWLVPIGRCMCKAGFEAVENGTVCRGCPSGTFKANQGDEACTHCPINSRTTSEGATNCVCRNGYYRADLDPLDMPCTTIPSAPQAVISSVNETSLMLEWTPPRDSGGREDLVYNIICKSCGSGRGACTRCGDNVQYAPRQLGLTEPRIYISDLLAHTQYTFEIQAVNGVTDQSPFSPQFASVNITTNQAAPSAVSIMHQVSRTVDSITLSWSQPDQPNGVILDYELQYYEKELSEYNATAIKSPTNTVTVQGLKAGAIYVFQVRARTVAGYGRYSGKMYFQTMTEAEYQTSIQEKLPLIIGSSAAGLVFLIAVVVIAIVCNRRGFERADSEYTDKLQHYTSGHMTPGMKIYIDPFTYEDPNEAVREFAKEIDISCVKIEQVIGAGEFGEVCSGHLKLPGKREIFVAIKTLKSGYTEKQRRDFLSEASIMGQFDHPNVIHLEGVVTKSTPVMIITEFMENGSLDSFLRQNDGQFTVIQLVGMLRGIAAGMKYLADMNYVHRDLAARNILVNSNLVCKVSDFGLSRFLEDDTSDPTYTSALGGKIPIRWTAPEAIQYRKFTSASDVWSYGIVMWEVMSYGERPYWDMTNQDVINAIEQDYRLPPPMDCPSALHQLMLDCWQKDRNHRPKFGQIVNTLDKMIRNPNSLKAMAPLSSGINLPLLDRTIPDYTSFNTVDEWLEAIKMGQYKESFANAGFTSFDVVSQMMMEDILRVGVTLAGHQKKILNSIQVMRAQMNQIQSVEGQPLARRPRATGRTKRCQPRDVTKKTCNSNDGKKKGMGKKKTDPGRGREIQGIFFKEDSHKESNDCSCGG
Procedure: as §1

[15] = target: FER (Homo sapiens, UniProt P16591); conditions: read-out: Percent Control
Procedure: as §1

[16] = target: FES (Homo sapiens, UniProt P07332); conditions: read-out: Percent Control
Procedure: as §1

[17] = target: FGFR2 (Homo sapiens, UniProt P21802); conditions: read-out: Percent Control
Procedure: as §1

[18] = target: FGR (Homo sapiens, UniProt P09769); conditions: read-out: Percent Control
Procedure: as §1

[19] = target: FLT1 (Homo sapiens, UniProt P17948); conditions: read-out: Percent Control
Chain of FLT1 (P17948 27-1338): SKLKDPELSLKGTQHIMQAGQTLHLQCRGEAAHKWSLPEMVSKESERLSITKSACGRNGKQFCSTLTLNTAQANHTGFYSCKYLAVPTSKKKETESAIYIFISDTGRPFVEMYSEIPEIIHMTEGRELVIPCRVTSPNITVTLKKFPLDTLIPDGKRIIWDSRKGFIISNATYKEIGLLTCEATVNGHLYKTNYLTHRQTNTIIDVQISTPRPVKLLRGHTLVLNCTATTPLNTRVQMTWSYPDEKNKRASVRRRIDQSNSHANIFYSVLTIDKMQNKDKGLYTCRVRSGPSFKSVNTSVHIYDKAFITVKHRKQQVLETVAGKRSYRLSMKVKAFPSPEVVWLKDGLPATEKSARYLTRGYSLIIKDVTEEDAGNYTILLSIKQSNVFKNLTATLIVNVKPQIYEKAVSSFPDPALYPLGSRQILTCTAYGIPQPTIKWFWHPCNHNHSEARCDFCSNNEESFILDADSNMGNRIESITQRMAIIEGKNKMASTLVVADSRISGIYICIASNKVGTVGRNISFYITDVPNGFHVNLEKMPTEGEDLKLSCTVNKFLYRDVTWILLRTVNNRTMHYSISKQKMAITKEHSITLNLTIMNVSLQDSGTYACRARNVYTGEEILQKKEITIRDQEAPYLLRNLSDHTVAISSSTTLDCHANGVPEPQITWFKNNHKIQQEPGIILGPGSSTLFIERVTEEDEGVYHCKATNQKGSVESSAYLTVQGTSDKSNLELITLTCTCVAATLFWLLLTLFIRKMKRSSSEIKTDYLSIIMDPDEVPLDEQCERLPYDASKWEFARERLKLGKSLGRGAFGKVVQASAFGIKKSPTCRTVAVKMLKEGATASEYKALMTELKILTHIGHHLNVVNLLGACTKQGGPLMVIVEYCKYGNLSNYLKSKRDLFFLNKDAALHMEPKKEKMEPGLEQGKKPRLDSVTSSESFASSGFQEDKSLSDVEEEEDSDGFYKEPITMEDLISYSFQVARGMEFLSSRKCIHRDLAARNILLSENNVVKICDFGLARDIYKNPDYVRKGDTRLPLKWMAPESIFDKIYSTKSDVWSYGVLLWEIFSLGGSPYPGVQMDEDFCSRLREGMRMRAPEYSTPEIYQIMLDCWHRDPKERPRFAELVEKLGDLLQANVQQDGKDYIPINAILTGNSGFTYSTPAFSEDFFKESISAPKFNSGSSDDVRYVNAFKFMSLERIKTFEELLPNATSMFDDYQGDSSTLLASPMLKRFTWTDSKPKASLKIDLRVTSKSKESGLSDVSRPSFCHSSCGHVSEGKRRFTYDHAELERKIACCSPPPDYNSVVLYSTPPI
Procedure: as §1

[20] = target: T7, FLT3(D835Y) (Homo sapiens, UniProt P36888, D835Y); conditions: read-out: Percent Control
T7 construct: purchased KINOMEscan (screening service)
Procedure: as §1

[21] = target: FLT3(N841I) (Homo sapiens, UniProt P36888, N841I); conditions: read-out: Percent Control
Procedure: as §1

[22] = target: FRK (Homo sapiens, UniProt P42685); conditions: read-out: Percent Control
Procedure: as §1

[23] = target: T8, GAK (Homo sapiens, UniProt O14976); conditions: read-out: Percent Control
T8 construct: purchased KINOMEscan (screening service)
Procedure: as §1

[24] = target: T9, GCN2(Kin.Dom.2, S808G) (Homo sapiens, UniProt Q9P2K8, S808G); conditions: GCN2(Kin.Dom.2, S808G) (Entrez EIF2AK4), read-out: Percent Control
T9 construct: GCN2(Kin.Dom.2, S808G)
T9 sequence (Q9P2K8 590-1001 S808G limits assumed): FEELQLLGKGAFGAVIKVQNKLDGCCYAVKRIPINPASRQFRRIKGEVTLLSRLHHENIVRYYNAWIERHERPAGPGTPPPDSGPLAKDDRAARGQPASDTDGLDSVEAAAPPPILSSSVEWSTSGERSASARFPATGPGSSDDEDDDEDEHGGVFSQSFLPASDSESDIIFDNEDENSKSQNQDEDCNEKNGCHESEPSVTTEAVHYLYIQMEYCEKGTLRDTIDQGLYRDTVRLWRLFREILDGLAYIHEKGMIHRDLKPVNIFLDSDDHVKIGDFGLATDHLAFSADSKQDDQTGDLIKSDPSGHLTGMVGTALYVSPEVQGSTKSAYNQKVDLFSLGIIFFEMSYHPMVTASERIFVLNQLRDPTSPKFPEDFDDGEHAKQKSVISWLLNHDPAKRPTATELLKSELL
Procedure: as §1

[25] = target: T10, JAK3(JH1domain-catalytic) (Homo sapiens, UniProt P52333); conditions: read-out: Percent Control
T10 construct: JAK3(JH1domain-catalytic)
T10 sequence (P52333 822-1111 limits assumed): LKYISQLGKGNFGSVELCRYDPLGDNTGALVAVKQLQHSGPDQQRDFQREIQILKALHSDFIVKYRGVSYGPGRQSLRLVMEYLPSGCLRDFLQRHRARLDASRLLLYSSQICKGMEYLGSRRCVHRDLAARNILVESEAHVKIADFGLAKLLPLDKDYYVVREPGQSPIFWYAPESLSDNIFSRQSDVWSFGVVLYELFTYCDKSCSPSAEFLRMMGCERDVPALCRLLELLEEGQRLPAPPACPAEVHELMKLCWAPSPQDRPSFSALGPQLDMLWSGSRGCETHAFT
Procedure: as §1

[26] = target: KIT(A829P) (Homo sapiens, UniProt P10721, A829P); conditions: read-out: Percent Control
Procedure: as §1

[27] = target: MAP3K2 (Homo sapiens, UniProt Q9Y2U5); conditions: read-out: Percent Control
Procedure: as §1

[28] = target: T11, MERTK (Homo sapiens, UniProt Q12866); conditions: read-out: Percent Control
T11 construct: purchased KINOMEscan (screening service)
Procedure: as §1

[29] = target: PDGFRA (Homo sapiens, UniProt P16234); conditions: read-out: Percent Control
Procedure: as §1

[30] = target: PDGFRB (Homo sapiens, UniProt P09619); conditions: read-out: Percent Control
Procedure: as §1

[31] = target: T12, RET(V804L) (Homo sapiens, UniProt P07949, V804L); conditions: read-out: Percent Control
T12 construct: purchased KINOMEscan (panel service)
Procedure: as §1

[32] = target: T13, SRC (Homo sapiens, UniProt P12931); conditions: read-out: Percent Control
T13 construct: purchased KINOMEscan (panel service)
Procedure: as §1

[33] = target: T14, TAOK2 (Homo sapiens, UniProt Q9UL54); conditions: read-out: Percent Control
T14 construct: purchased KINOMEscan (screening service)
T14 sequence (Q9UL54 whole entry): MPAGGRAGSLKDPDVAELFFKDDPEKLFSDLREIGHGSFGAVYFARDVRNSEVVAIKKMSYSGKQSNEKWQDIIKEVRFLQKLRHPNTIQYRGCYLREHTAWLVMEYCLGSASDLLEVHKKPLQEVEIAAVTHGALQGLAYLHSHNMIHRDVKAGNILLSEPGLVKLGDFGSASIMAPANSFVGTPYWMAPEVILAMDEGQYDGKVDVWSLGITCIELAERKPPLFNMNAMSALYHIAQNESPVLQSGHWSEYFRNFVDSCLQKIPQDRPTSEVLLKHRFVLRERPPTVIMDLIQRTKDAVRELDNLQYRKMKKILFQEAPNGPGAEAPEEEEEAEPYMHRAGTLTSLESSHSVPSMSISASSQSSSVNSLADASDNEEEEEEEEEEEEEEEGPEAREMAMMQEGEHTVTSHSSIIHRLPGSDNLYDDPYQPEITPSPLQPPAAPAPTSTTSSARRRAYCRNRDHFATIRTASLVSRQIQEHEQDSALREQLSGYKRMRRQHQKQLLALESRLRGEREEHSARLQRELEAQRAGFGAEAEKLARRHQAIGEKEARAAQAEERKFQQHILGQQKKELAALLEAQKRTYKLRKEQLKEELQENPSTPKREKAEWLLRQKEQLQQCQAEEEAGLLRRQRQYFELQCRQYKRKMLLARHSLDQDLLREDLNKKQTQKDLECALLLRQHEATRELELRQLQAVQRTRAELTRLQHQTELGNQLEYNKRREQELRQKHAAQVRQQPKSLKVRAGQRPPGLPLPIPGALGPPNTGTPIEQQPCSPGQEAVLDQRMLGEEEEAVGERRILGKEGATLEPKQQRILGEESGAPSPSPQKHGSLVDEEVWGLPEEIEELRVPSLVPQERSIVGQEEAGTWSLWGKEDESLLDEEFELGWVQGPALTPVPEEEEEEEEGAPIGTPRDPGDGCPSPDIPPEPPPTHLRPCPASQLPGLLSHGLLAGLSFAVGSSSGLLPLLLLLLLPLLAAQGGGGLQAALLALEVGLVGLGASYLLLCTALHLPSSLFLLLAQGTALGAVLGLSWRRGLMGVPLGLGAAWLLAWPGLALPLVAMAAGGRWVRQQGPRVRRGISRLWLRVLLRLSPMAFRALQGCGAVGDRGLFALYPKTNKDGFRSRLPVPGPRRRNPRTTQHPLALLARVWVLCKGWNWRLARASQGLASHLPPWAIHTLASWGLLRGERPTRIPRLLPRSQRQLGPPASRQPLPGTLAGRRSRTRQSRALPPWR
Procedure: as §1

[34] = target: T15, TNNI3K (Homo sapiens, UniProt Q59H18); conditions: read-out: Percent Control
T15 construct: purchased KINOMEscan (panel service)
Procedure: as §1

[35] = target: T16, TXK (Homo sapiens, UniProt P42681); conditions: read-out: Percent Control
T16 construct: purchased KINOMEscan (panel service)
Procedure: as §1

[36] = target: YSK4 (Homo sapiens, UniProt Q56UN5); conditions: read-out: Percent Control
Procedure: as §1

SMILES: Cc1ccc(Nc2ncc3c(n2)N(C)CN(c2cc(NC(=O)c4cccc(C(F)(F)F)c4)ccc2C)C3)cn1 [IA-9, N-(4-methyl-3-(1-methyl-7-((6-methylpyridin-3-yl)amino)-1,4-dihydropyrimido[4,5-d]pyrimidin-3(2H)-yl)phenyl)-3-(trifluoromethyl)benzamide]
- remaining binding at 10 µM [1]: 0%
- remaining binding at 10 µM [2]: 1.2%
- remaining binding at 10 µM [3]: 4.1%
- remaining binding at 10 µM [4]: 0.3%
- remaining binding at 10 µM [5]: 15%
- remaining binding at 10 µM [6]: 0.1%
- remaining binding at 10 µM [7]: 0.9%
- remaining binding at 10 µM [8]: 15%
- remaining binding at 10 µM [9]: 1.1%
- remaining binding at 10 µM [10]: 22%
- remaining binding at 10 µM [11]: 17%
- remaining binding at 10 µM [12]: 24%
- remaining binding at 10 µM [13]: 0%
- remaining binding at 10 µM [14]: 0%
- remaining binding at 10 µM [15]: 3.6%
- remaining binding at 10 µM [16]: 0.7%
- remaining binding at 10 µM [17]: 2.7%
- remaining binding at 10 µM [18]: 0%
- remaining binding at 10 µM [19]: 0.55%
- remaining binding at 10 µM [20]: 9%
- remaining binding at 10 µM [21]: 0.55%
- remaining binding at 10 µM [22]: 0%
- remaining binding at 10 µM [23]: 7.4%
- remaining binding at 10 µM [24]: 1.3%
- remaining binding at 10 µM [25]: 5%
- remaining binding at 10 µM [26]: 3.6%
- remaining binding at 10 µM [27]: 5%
- remaining binding at 10 µM [28]: 7%
- remaining binding at 10 µM [29]: 1.6%
- remaining binding at 10 µM [30]: 0%
- remaining binding at 10 µM [31]: 0%
- remaining binding at 10 µM [32]: 0.15%
- remaining binding at 10 µM [33]: 15%
- remaining binding at 10 µM [34]: 0.1%
- remaining binding at 10 µM [35]: 0%
- remaining binding at 10 µM [36]: 0.3%
